Data published in ChEMBL document CHEMBL1201862, “PubChem BioAssay data set” (2004).
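A five-concentration, 48-hour dose response in 96-well plates underlies each endpoint, interpolated linearly between surrounding concentrations. GI50: concentration for 50% inhibition of growth.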 Calls of active or inactive are those of the source. Cut-off read from the data, not from the text of the source: active = GI50 up to about 1.1 µM and inactive = higher.

What was measured:
Assay in all cases: NCI-60 cell line screen, 48 h
SR = test system: SR
NCI-H23 = test system: NCI-H23
SW-620 = test system: SW-620
HOP-62 = test system: HOP-62
SK-OV-3 = test system: SK-OV-3
OVCAR-3 = test system: OVCAR-3
MDA-MB-435 = test system: MDA-MB-435
SF-295 = test system: SF-295
OVCAR-4 = test system: OVCAR-4
COLO 205 = test system: COLO 205
HOP-92 = test system: HOP-92
SN12C = test system: SN12C
NCI-H460 = test system: NCI-H460
DU-145 = test system: DU-145
BT-549 = test system: BT-549
HCC 2998 = test system: HCC 2998
UO-31 = test system: UO-31
EKVX = test system: EKVX
HT-29 = test system: HT-29
SK-MEL-5 = test system: SK-MEL-5
SF-268 = test system: SF-268
LOX IMVI = test system: LOX IMVI
SNB-19 = test system: SNB-19
MDA-MB-231 = test system: MDA-MB-231
PC-3 = test system: PC-3
T47D = test system: T47D
HCT-116 = test system: HCT-116
SNB-75 = test system: SNB-75
OVCAR-5 = test system: OVCAR-5
U-251 = test system: U-251
SK-MEL-2 = test system: SK-MEL-2
NCI-H522 = test system: NCI-H522
SK-MEL-28 = test system: SK-MEL-28
OVCAR-8 = test system: OVCAR-8
A498 = test system: A498
HL-60 = test system: HL-60
HCT-15 = test system: HCT-15
786-0 = test system: 786-0
SF-539 = test system: SF-539
CAKI-1 = test system: CAKI-1
Hs-578T = test system: Hs-578T
K562 = test system: K562
Malme-3M = test system: Malme-3M
CCRF-CEM = test system: CCRF-CEM
NCI/ADR-RES = test system: NCI/ADR-RES
MOLT-4 = test system: MOLT-4
RXF 393 = test system: RXF 393
UACC-257 = test system: UACC-257
ACHN = test system: ACHN
KM12 = test system: KM12
UACC-62 = test system: UACC-62
RPMI-8226 = test system: RPMI-8226
TK-10 = test system: TK-10
IGROV-1 = test system: IGROV-1
M14 = test system: M14
NCI-H226 = test system: NCI-H226
A549 = test system: A549
MCF7 = test system: MCF7

## COC(=O)C1(C)CC2C(C)(CCC3(C)C4=CC=C5C(=CC(=O)C(O)=C5C)C4(C)CCC23C)CC1O (centres undefined)
SR
  GI50: 203 nM (active)
NCI-H23
  GI50: 2050 nM (inactive)
SW-620
  GI50: 405 nM (active)
HOP-62
  GI50: 1860 nM (inactive)
SK-OV-3
  GI50: 2070 nM (inactive)
OVCAR-3
  GI50: 774 nM (active)
MDA-MB-435
  GI50: 942 nM (active)
SF-295
  GI50: 1780 nM (inactive)
OVCAR-4
  GI50: 1610 nM (inactive)
COLO 205
  GI50: 627 nM (active)
HOP-92
  GI50: 635 nM (active)
SN12C
  GI50: 1490 nM (inactive)
NCI-H460
  GI50: 1790 nM (inactive)
DU-145
  GI50: 1360 nM (inactive)
BT-549
  GI50: 851 nM (active)
HCC 2998
  GI50: 1560 nM (inactive)
UO-31
  GI50: 1350 nM (inactive)
EKVX
  GI50: 1300 nM (inactive)
HT-29
  GI50: 634 nM (active)
SK-MEL-5
  GI50: 1660 nM (inactive)
SF-268
  GI50: 863 nM (active)
LOX IMVI
  GI50: 333 nM (active)
SNB-19
  GI50: 1590 nM (inactive)
MDA-MB-231
  GI50: 577 nM (active)
PC-3
  GI50: 1130 nM (inactive)
T47D
  GI50: 495 nM (active)
HCT-116
  GI50: 564 nM (active)
SNB-75
  GI50: 1920 nM (inactive)
OVCAR-5
  GI50: 1730 nM (inactive)
U-251
  GI50: 1090 nM (active)
SK-MEL-2
  GI50: 1680 nM (inactive)
NCI-H522
  GI50: 200 nM (active)
SK-MEL-28
  GI50: 521 nM (active)
OVCAR-8
  GI50: 822 nM (active)
A498
  GI50: 1930 nM (inactive)
HL-60
  GI50: 216 nM (active)
HCT-15
  GI50: 334 nM
786-0
  GI50: 226 nM (active)
SF-539
  GI50: 1100 nM (active)
CAKI-1
  GI50: 902 nM (active)
Hs-578T
  GI50: 1070 nM (active)
K562
  GI50: 284 nM (active)
Malme-3M
  GI50: 762 nM (active)
CCRF-CEM
  GI50: 157 nM (active)
NCI/ADR-RES
  GI50: 1060 nM (active)
MOLT-4
  GI50: 285 nM (active)
RXF 393
  GI50: 429 nM (active)
UACC-257
  GI50: 1720 nM (inactive)
ACHN
  GI50: 450 nM (active)
KM12
  GI50: 1570 nM (inactive)
UACC-62
  GI50: 962 nM (active)
RPMI-8226
  GI50: 283 nM (active)
TK-10
  GI50: 624 nM (active)
IGROV-1
  GI50: 331 nM (active)
M14
  GI50: 1260 nM (inactive)
NCI-H226
  GI50: 2120 nM (inactive)
A549
  GI50: 2290 nM (inactive)
MCF7
  GI50: 1600 nM (inactive)

## CC1CC(C)(C)CC(OCCN2CCCCC2)(c2ccccc2)C1 (centres undefined)
SR
  GI50: 4970 nM (inactive)
NCI-H23
  GI50: 10300 nM (inactive)
SW-620
  GI50: 13900 nM (inactive)
HOP-62
  GI50: 13200 nM (inactive)
SK-OV-3
  GI50: 14700 nM (inactive)
OVCAR-3
  GI50: 10400 nM (inactive)
MDA-MB-435
  GI50: 11900 nM (inactive)
SF-295
  GI50: 10700 nM (inactive)
OVCAR-4
  GI50: 11300 nM (inactive)
COLO 205
  GI50: 7710 nM (inactive)
HOP-92
  GI50: 8170 nM (inactive)
SN12C
  GI50: 12000 nM (inactive)
NCI-H460
  GI50: 4210 nM (inactive)
DU-145
  GI50: 6610 nM (inactive)
BT-549
  GI50: 12700 nM (inactive)
UO-31
  GI50: 7160 nM (inactive)
EKVX
  GI50: 5510 nM (inactive)
HT-29
  GI50: 1890 nM (inactive)
SK-MEL-5
  GI50: 10000 nM (inactive)
SF-268
  GI50: 10800 nM (inactive)
LOX IMVI
  GI50: 7130 nM (inactive)
SNB-19
  GI50: 12900 nM (inactive)
MDA-MB-231
  GI50: 11400 nM (inactive)
PC-3
  GI50: 12200 nM (inactive)
T47D
  GI50: 12900 nM (inactive)
HCT-116
  GI50: 4400 nM (inactive)
SNB-75
  GI50: 15100 nM (inactive)
OVCAR-5
  GI50: 4190 nM (inactive)
U-251
  GI50: 11600 nM (inactive)
SK-MEL-2
  GI50: 17800 nM (inactive)
NCI-H522
  GI50: 5870 nM (inactive)
SK-MEL-28
  GI50: 15700 nM (inactive)
OVCAR-8
  GI50: 15200 nM (inactive)
A498
  GI50: 12800 nM (inactive)
HL-60
  GI50: 11400 nM (inactive)
HCT-15
  GI50: 10200 nM
786-0
  GI50: 10100 nM (inactive)
SF-539
  GI50: 15600 nM (inactive)
CAKI-1
  GI50: 12700 nM (inactive)
Hs-578T
  GI50: 13300 nM (inactive)
K562
  GI50: 13000 nM (inactive)
Malme-3M
  GI50: 10400 nM (inactive)
CCRF-CEM
  GI50: 6500 nM (inactive)
NCI/ADR-RES
  GI50: 14400 nM (inactive)
RXF 393
  GI50: 10900 nM (inactive)
UACC-257
  GI50: 11600 nM (inactive)
ACHN
  GI50: 15900 nM (inactive)
KM12
  GI50: 7350 nM (inactive)
UACC-62
  GI50: 15600 nM (inactive)
RPMI-8226
  GI50: 4510 nM (inactive)
TK-10
  GI50: 13300 nM (inactive)
IGROV-1
  GI50: 13200 nM (inactive)
M14
  GI50: 3210 nM (inactive)
NCI-H226
  GI50: 20700 nM (inactive)
A549
  GI50: 11000 nM (inactive)
MCF7
  GI50: 11200 nM (inactive)
